In US8951527B2, “Radioprotectants targeting thrombospondin-1 and CD47” (The United States of America, as represented by the …, priority 2008, dated 2015):
Entries after “also recorded” stand apart in the source; their conditions may differ.

Columns and labels:
HUVEC [1] = test: HUVEC cell viability after irradiation (MTT / CellTiter 96); assay type: cell-based, human; details: for survival / cell death of irradiated HUVEC (MTT): 40 Gy or no radiation, 48 hours post radiation (FIG. 22); for cell viability after graded doses of peptide and radiation: peptide 1 hour before 0, 10, 20, 30, 40 Gray, 72 hours (FIG. 12)
Method: FIG. 11. Radioprotective activities of TSP1 and CD47 antibodies, a CD47 binding peptide from TSP1, and a CD47 morpholino. HUVEC were plated on 96-well plates in standard growth medium. Cells were treated with TSP1 (FIG. 11A) or CD47 (FIG. 11B) monoclonal antibodies (clone A6.1 or B6H12, respectively) and received the indicated doses of radiation 24 hours after addition of the antibodies. Cell (mitochondrial) viability was measured 48 hours post irradiation using an MTT assay. Cells were treated using peptide 7N3 (FIG. 11C) and control peptide 604 (FIG. 11D), subjected to the same experimental conditions, and assayed via MTT. […] Experiments were repeated 3 times and results presented as the mean±SD.
(§1) FIG. 12. Peptides 7N3 and C6d are radioprotective to HUVEC in culture. Human umbilical vein endothelial cells (HUVEC) grown in EGM medium in 96-well plates were treated with graded doses of a peptide agent, as indicated. One hour later, cells were exposed to a single dose of gamma radiation (0, 10, 20, 30, and 40 Gray) and allowed to incubate 72 hours at 37° C. Cell viability was determined with the CellTiter 96 AQueous One Solution Cell Proliferation Assay.
(§2) Cell Viability Assay. HUVEC were plated at a density of 5000 cells/well in 96 well plates (Nunc), and were treated 24 hours later with either the indicated doses of a CD47 antibody (B6H12), a TSP1 antibody (A6.1), the CD47-binding peptide 7N3, or control peptide 604. One hour later the cells were exposed to a single dose of gamma radiation (0, 10, 20, 30, and 40 Gy) and allowed to incubate another 72 hours at 37° C. Experiments done with B16E10 melanoma cells in Example 4 were done in a similar manner treating either 1 hour prior to a single dose of radiation (10 Gy) with peptide 7N3 or 48 hours prior with CD47 morpholino. Cell viability was determined using the CellTiter 96 Aqueous One Solution cell proliferation assay (Promega, Madison, Wis.) as per the manufacturer's instructions and absorbance at 490 nm was determined using an MR580 Microelisa AutoReader (Dynatech, Alexandria, Va.). The same assay was performed on HUVEC using either the CD47 or CD36 morpholino, but 48 hours were allowed to pass prior to radiation (0 or 40 Gy) to allow for suppression of the target proteins. Similarly, control experiments were performed using the nitric oxide synthase (NOS) inhibitor L-NAME, a membrane permeable cGMP analogue, 8-Bromo cGMP, or the NO donor DETA/NO.
as §1, with “In an additional experiment to test the effect of” for “FIG. 12. Peptides 7N3 and C6d are”, “peptides, human” for “to HUVEC in culture. Human”

B16F10 melanoma cells = test: B16F10 melanoma cell viability after irradiation in vitro; assay type: cell-based, mouse; details: 7N3 1 hour or morpholino 48 hours before 10 Gy, versus untreated cells
Method: FIG. 19. CD47 suppression enhances re-growth delay in irradiated syngeneic B16 melanoma and squamous cell carcinoma tumors but increases radioresistance of B16 cells in vitro. C57BL/6 mice were injected with 1×10^6 B16 mouse melanoma cells into their right hindlimbs. Five days later, the mice were randomized into 4 groups (12 mice in each group) where they either received injections of CD47 morpholino (10 μM) in sterile PBS, PBS, or no injection. The two groups receiving injections were then subjected to radiation (10 Gy) to the effected hindlimb 48 hours later. The other two groups served as controls and consisted of tumor alone or tumor subjected to only the morpholino. Tumors were followed post-radiation for 30 days, measuring their volume every 6 days (FIG. 19A). […] Cell (mitochondrial) viability was measured 48 hours post radiation using the MTT assay.
Cell Viability Assay. […] Cell viability was determined using the CellTiter 96 Aqueous One Solution cell proliferation assay (Promega, Madison, Wis.) as per the manufacturer's instructions and absorbance at 490 nm was determined using an MR580 Microelisa AutoReader (Dynatech, Alexandria, Va.). […]
Irradiation of cells. […] The dose rate at 50 cm from the x-ray source was 242 cGy/minute, as determined by multiple thermo luminescent dosimeter readings.

HAVSMC = HAVSMC cell viability after irradiation (CellTiter 96); assay type: cell-based, human; details: greater doses of radiation (FIG. 13)
Method: FIG. 13. Peptide 7N3 is radioprotective to HAVSMC in culture. Human aortic vascular smooth muscle cells (HAVSMC) were also subjected to the CellTiter 96 Aqueous One Solution cell proliferation assay (Promega, Madison, Wis.).
as §2, with “Similarly, control experiments were performed using the nitric oxide synthase (NOS) inhibitor L-NAME, a membrane permeable cGMP analogue, 8-Bromo cGMP, or the NO donor DETA/NO.” left out

C57BL/6 wild type mice = test: Hindlimb irradiation (25 Gy), skin reaction / tissue necrosis grading and histology; assay type: in vivo, mouse; details: 10 μM in 750 μl PBS local-regional, 48 hours before 25 Gy, 8 weeks
Method: FIG. 16. CD47 suppression using an antisense morpholino minimizes tissue damage from radiation injury. Age and sex matched C57BL16 wild type mice underwent a one-time treatment of the right hindlimb with either a murine specific CD47 morpholino oligonucleotide (10 μM in 750 μl PBS) or 750 μl of PBS injected local-regionally to the muscle and soft tissues. […] At the end of 8 weeks, there was a considerable amount of alopecia, dry desquamation and early signs of fibrotic contractures within the irradiated hind limbs of mice receiving only PBS. […] The tissue necrosis grading scores for 8 animals are presented as mean±SD (FIG. 16B) and show a similar trend throughout the 8-week observation period.
Skin reaction: Skin reaction following hind limb irradiation was quantified every week following treatment for 8 weeks using a previously described grading system (Flanders et al., Am J Pathol 163:2247-2257, 2003). The grading system consisted of 5 categories: normal, hair loss, erythema, dry desquamation and moist desquamation/ulceration.
Irradiation of mice: Age and sex matched wild type mice underwent local irradiation to the right hindlimb as described in Example 1. Forty-eight hours prior to irradiation, animals received the CD47 morpholino (SEQ ID NO: 4), a control morpholino (SEQ ID NO: 5) (both at 10 μM in […] PBS via intramuscular injection), vehicle, or no treatment to the hind limb. Under 1% isoflurane inhalation anesthesia, the animals were placed in customized Lucite jigs that allow for immobilization and selective irradiation of the right hindlimb. A single radiation dose of 25 Gy was delivered by a Therapax® DXT300 X-ray irradiator (Pantak, Inc., East Haven, Conn.) using 2.0-mm A1 filtration (300 kVp) at a dose rate of 2.53 Gy/min. Care was taken to avoid irradiation of other body parts by using lead shields specifically designed as a part of the jigs. After irradiation, the animals were placed in cages as indicated above and observed weekly. Skin reaction after hind limb irradiation was quantified every week after treatment for 8 weeks using a previously described grading system (Flanders et al., Am J. Pathol 163:2247-2257, 2003). Briefly, tissue necrosis grading system consists of 5 categories: normal, hair loss, erythema, dry desquamation, and moist desquamation/ulceration.
Age and sex matched C57BL16 wild type mice underwent a one-time treatment of the right hindlimb with the CD47 antisense morpholino oligonucleotide (10 μM in 750 μl PBS), a mismatched control morpholino, or vehicle (PBS) injected local-regionally to the muscle and soft tissues.

HUVEC [2] = test: HUVEC proliferation post-radiation (BrdU incorporation); assay type: cell-based, human; details: treated 48 hours before 10 Gy, over 1 week (FIG. 14)
Method: FIG. 14. TSP1 and CD47 antibodies or antisense suppression of CD47 maintain proliferation of irradiated HUVEC. HUVEC were plated in 96-well plates in growth medium and treated with CD47 morpholino (FIG. 14A; *p<0.05, #p<0.01) TSP1, or CD47 antibodies (FIG. 14B; *p<0.05, #p<0.01) and exposed to 10 Gy irradiation 48 hours later. Cell proliferation at the indicated times post-radiation was determined by intracellular BrdU incorporation. Experiments were repeated 3 times, and results presented as the mean±SD.
FIG. 15. HUVEC protected by radioprotective agents are both viable and proliferate at a better rate than untreated cells in culture. Proliferation was assessed by quantifying incorporation of bromodeoxyuridine (BrdU) into newly synthesized DNA using a BrdU Cell Proliferation Assay. HUVEC were seeded into 96 well plates for 24 hours at 37° C., then treated with either antibody A6.1 or B6H12 or peptide 7N3. The treated cells were irradiated at 40 Gy 1 hour later. Control and irradiated plates were assayed for BrdU uptake over 96 hours post-radiation. The assay was performed according to the manufacturer's protocol, and the plates were read at 420 nm.
Cell proliferation assay: Proliferation was assessed by quantifying incorporation of bromodeoxyuridine (BrdU) into newly synthesized DNA using a BrdU Cell Proliferation Assay (Calbiochem, La Jolla, Calif.). Primary murine wild type, TSP1, TSP2, and CD47 null lung endothelial cells were seeded into 96 well plates at 5×10^4 cells/well density. After 24 hours incubation at 37° C. treatment groups were irradiated at 40 Gy. Control and irradiated plates were assayed for BrdU uptake over 24 hours starting at 48 to 168 hours post-radiation. The assay was performed according to the manufacturer's protocol, and the plates were read at 420 nm.
Proliferative capacities were also determined in endothelial cells exposed to high doses of radiation of 40 Gy. […] The assay was performed according to the manufacturer's protocol, and the plates were read at 420 nm.

Nc1nc2c(nc(Br)n2[C@@H]2O[C@@H]3COP(=O)(O)O[C@H]3[C@H]2O)c(=O)[nH]1 [cell permeable cGMP analog, 8-Bromo cyclic guanine monophosphate, reference compound] was tested, and the “survival / cell death of irradiated HUVEC (MTT)” value (HUVEC [1]) was “did not confer a significant survival advantage”.

With FIRVVMYEGKK [7N3] the “cell viability after 10 Gy” value (B16F10 melanoma cells) was “mild radioprotective effect”, the “cell (mitochondrial) viability post irradiation” value (HUVEC [1]; antibody or peptide before radiation, 0-40 Gy (FIG. 11A-D)) was “enhanced cell survival post-irradiation” and the “cell viability after graded doses of peptide and radiation” value (from here on “cell viability after graded doses”) (HUVEC [1]) was “protective effect”. For the same molecule, the “cell viability after radiation” value (HAVSMC) was “profound radioprotective protective effect”.

For NCCN(CCN)/[N+]([O-])=N/O [DETA/NO, reference compound], the “survival / cell death of irradiated HUVEC (MTT)” value (HUVEC [1]) was “did not confer a significant survival advantage”.

With “control morpholino: mismatched control morpholino from GeneTools (CGTGACAGCCACGACCGACTGCGCA; all phosphorodiamidate morpholino (PMO)) [reference compound]” the “skin reaction / tissue damage of irradiated hindlimb” value (C57BL/6 wild type mice) was “significant alopecia, dry and wet desquamation, and tissue ulceration with fibrous contracture” and the “proliferation (BrdU incorporation / DNA synthesis) after 10 Gy” value (HUVEC [2]) was “not”.

With “HIGWKDFTAYRWRLS [C6d, radioprotective peptide]” the “cell viability after graded doses” value (HUVEC [1]) was “protective effect”.

With “CD36 morpholino: antisense morpholino specific for the TSP1 receptor CD36 (antisense ATGGGCTGTGACCGGAACTGTGGGC; all phosphorodiamidate morpholino (PMO)) [reference compound]” the “proliferation (BrdU incorporation / DNA synthesis) after 10 Gy” value (HUVEC [2]) was “not seen” and the “cell viability post radiation after morpholino pretreatment” value (HUVEC [1]; morpholino 48 hours before radiation (FIG. 11E, F)) was “no radioprotection; also recorded: decrease in cellular viability similar to that of untreated cells”.

In the case of “FIRGGMYEGKK [compound 604, control peptide, reference compound]”, the “cell viability after graded doses” value (HUVEC [1]) is reported as “virtually no protection”.
